Measured values: US11090304B2 (Amgen Inc., priority 2018, dated 2021)
pIC50: −log10 of the molar value. Like-named read-outs stand apart in the source and are kept apart here.

Tests used:
[1] = system: Phosphorylation of ERK1/2 in MIA PaCa-2 cells; experiment: Phospho-ERK1/2 MSD assay in MIA PaCa-2 cells; type: cell-based
In short: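 IC50 comes from a 4-parameter logistic fit of MSD phospho-ERK1/2 signal in lysates. Before lysis, MIA PaCa-2 or A549 cells were exposed to titrated compound for 2 or 4 h at 37 °C, followed by a 10 min 10 ng/mL EGF stimulus.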

[2] = system: Phosphorylation of ERK1/2 in A549 cells; experiment: Phospho-ERK1/2 MSD assay in A549 cells; type: cell-based
Protocol: For compounds in Table 89, the following assay conditions were employed:
Phospho-ERK1/2 MSD Assay:
Sixteen hours prior to compound treatment, MIA PaCa-2 or A549 cells were seeded in 96-well cell culture plates at a density of 25,000 cells/well and incubated at 37° C., 5% CO2. A compound dose-response titration was diluted in growth media, added to appropriate wells of a cell culture plate, and then incubated at 37° C., 5% CO2 for 2 or 4 hours (see Table 15). Following compound treatment, cells were stimulated with 10 ng/mL EGF (Roche 11376454001) for 10 min, washed with ice-cold Dulbecco's phosphate-buffered saline, no Ca^2+ or Mg^2+ (ThermoFisher Scientific 14190144), and then lysed in RIPA buffer (50 mM Tris-HCl pH 7.5, 1% Igepal, 0.5% sodium deoxycholate, 150 mM NaCl, and 0.5% sodium dodecyl sulfate) containing protease inhibitors (Roche 4693132001) and phosphatase inhibitors (Roche 4906837001). Phosphorylation of ERK1/2 in compound-treated lysates was assayed using Phospho-ERK1/2 Whole Cell Lysate kits (Meso Scale Discovery K151DWD) according to the manufacturer's protocol. Assay plates were read on a Meso Scale Discovery Sector Imager 6000, and data were analyzed using a 4-parameter logistic model to calculate IC50 values.

[3] = biological target: GDP-bound KRAS protein (aa 1-169), containing both G12C and C118A amino acid substitutions (Homo sapiens, UniProt P01116, C118A/G12C); experiment: Coupled nucleotide exchange assay (SOS-mediated, AlphaScreen); type: biochemical; settings: 5 min compound pre-incubation
GDP-bound KRAS protein (aa 1-169), containing both G12C and C118A amino acid substitutions, sequence (P01116 1-169 isoform P01116-2 G12C/C118A): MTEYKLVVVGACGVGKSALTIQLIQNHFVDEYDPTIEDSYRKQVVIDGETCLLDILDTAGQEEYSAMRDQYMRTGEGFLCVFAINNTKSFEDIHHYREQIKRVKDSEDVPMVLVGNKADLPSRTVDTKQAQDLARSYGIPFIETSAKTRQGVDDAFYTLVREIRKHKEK

[4] = read-out: p-ERK IC50 (2 h; MIA PaCa-2), 2 h compound treatment
[5] = Homo sapiens, A549, 2 h, read-out: p-ERK IC50 (2 h; A549), 2 h compound treatment
[6] = Homo sapiens, MIA PaCa-2, 4 h, read-out: p-ERK IC50 (4 h; MIA PaCa-2), 4 h compound treatment
[7] = Homo sapiens, A549, 4 h, read-out: p-ERK IC50 (4 h; A549), 4 h compound treatment
[8] = Homo sapiens, MIA PaCa-2, 2 h, read-out: p-ERK IC50 (2 h; MIA PaCa-2), 2 h compound treatment

pIC50 [2, 5]	pIC50 [1, 6]	pIC50 [2, 7]	pIC50 [1, 8]	SMILES	also measured
≤ 5.00				C=CC(=O)N1CCN(c2nc(=O)n(-c3ccccc3C(C)C)c3cc(-c4ccccc4C(F)(F)F)c(Cl)cc23)[C@@H](C)C1 [Example 62-2, 6-chloro-4-((2S)-2-methyl-4-(2-propenoyl)-1-piperazinyl)-1-(2-(2-propanyl)phenyl)-7-(2-(trifluoromethyl)phenyl)-2(1H)-quinazolinone]	
≤ 4.00			6.94	C=CC(=O)N1CCN(c2nc(=O)n(-c3ccccc3C(C)C)c3cc(-c4ccccc4F)c(Cl)cc23)[C@@H](C)C1 [Example 62-1, (S)-4-(4-acryloyl-2-methylpiperazin-1-yl)-6-chloro-7-(2-fluorophenyl)-1-(2-isopropylphenyl)quinazolin-2(1H)-one]	
	5.73	4.19		C=CC(=O)N1CCN(c2nc(=O)n(-c3ccccc3C(C)C)c3nc(N4CCCCC4)c(Cl)cc23)[C@@H](C)C1 [Example 69-1, 6-Chloro-4-((2S)-2-methyl-4-(2-propenoyl)-1-piperazinyl)-7-(1-piperidinyl)-1-(2-(2-propanyl)phenyl)pyrido[2,3-d]pyrimidin-2(1H)-one]	
≤ 5.00				C=CC(=O)N1CCN(c2nc(=O)n(-c3ccccc3C(C)C)c3cc(-c4ccccc4F)c(Cl)cc23)CC1 (single isomer, unassigned) [Example 88-1, 6-chloro-7-(2-fluorophenyl)-1-(2-(2-propanyl)phenyl)-4-(4-(2-propenoyl)-1-piperazinyl)-2(1H)-quinazolinone]	
	6.66	≤ 4.48		C=CC(=O)N1CCN(c2nc(=O)n(-c3ccccc3C(C)C)c3c(C)c(-c4c(O)cccc4F)c(Cl)cc23)[C@@H](C)C1 (single isomer, unassigned) [Example 90-1]	

The next lines start with the compound.

SMILES	pIC50 [2, 5]	pIC50 [1, 6]	pIC50 [2, 7]	pIC50 [1, 8]	also measured
C=CC(=O)N1CCN(c2nc(=O)n(-c3ccccc3C(C)C)c3nc(-c4ccccc4Cl)c(Cl)cc23)[C@@H](C)C1 (single isomer, unassigned) [Example 54-84-1]	≤ 4.00				pIC50 [1, 4]: 6.13
C=CC(=O)N1CCN(c2nc(=O)n(-c3ccccc3C(C)C)c3nc(Oc4cccc(F)c4)c(Cl)cc23)CC1 [Example 60-23, 6-chloro-7-(3-fluorophenoxy)-1-(2-(2-propanyl)phenyl)-4-(4-(2-propenoyl)-1-piperazinyl)pyrido[2,3-d]pyrimidin-2(1H)-one]		5.35	4.42		
C=CC(=O)N1CCN(c2nc(=O)n(C(C(C)C)C(C)C)c3nc(Cl)c(Cl)cc23)CC1 [Example 60-35, 6,7-dichloro-1-(2,4-dimethyl-3-pentanyl)-4-(4-(2-propenoyl)-1-piperazinyl)pyrido[2,3-d]pyrimidin-2(1H)-one]		4.97	4.34		
C=CC(=O)N1CCN(c2nc(=O)n(-c3c(CC)cccc3CC)c3nc(-c4c(C)ccc5[nH]ncc45)c(Cl)cc23)[C@@H](C)C1 [Example 54-66, 6-chloro-1-(2,6-diethylphenyl)-7-(5-methyl-1H-indazol-4-yl)-4-((2S)-2-methyl-4-(2-propenoyl)-1-piperazinyl) pyrido[2,3-d]pyrimidin-2(1H)-one]	≤ 5.00	6.91	≤ 4.00	7.00	
C=CC(=O)N1CCN(c2nc(=O)n([C@@H]3CCc4ccccc43)c3nc(-c4ccccc4F)c(Cl)cc23)[C@@H](C)C1 [Example 54-67, 6-chloro-1-((1R)-2,3-dihydro-1H-inden-1-yl)-7-(2-fluorophenyl)-4-((2S)-2-methyl-4-(2-propenoyl)-1-piperazinyl) pyrido[2,3-d]pyrimidin-2(1H)-one]	≤ 5.00			≤ 5.00	
C=CC(=O)N1CCN(c2nc(=O)n(-c3ccccc3C(C)C)c3nc(-c4ccccc4Cl)c(Cl)cc23)[C@@H](C)C1 [Example 54-84, 6-chloro-7-(2-chlorophenyl)-4-((2S)-2-methyl-4-(2-propenoyl)-1-piperazinyl)-1-(2-(2-propanyl)phenyl)pyrido [2,3-d]pyrimidin-2(1H)-one]	≤ 4.00	7.08	≤ 4.00	7.27	
C=CC(=O)N1CCN(c2nc(=O)n(-c3ccccc3C(C)C)c3nc(-c4c(O)cccc4F)c(Cl)cc23)CC1 (single isomer, unassigned) [Example 60-24-1, (M)-6-chloro-7-(2-fluoro-6-hydroxyphenyl)-1-(2-(2-propanyl)phenyl)-4-(4-(2-propenoyl)-1-piperazinyl)pyrido[2,3-d]pyrimidin-2(1H)-one]	≤ 4.00				
C=CC(=O)N1CCN(c2nc(=O)n(C(CC)CC)c3nc(-c4ccccc4F)c(Cl)cc23)[C@@H](C)C1 [Example 54-2, 6-chloro-7-(2-fluorophenyl)-4-((2S)-2-methyl-4-(2-propenoyl)-1-piperazinyl)-1-(3-pentanyl) pyrido[2,3-d]pyrimidin-2(1H)-one]	≤ 4.00	4.25	≤ 4.00	4.18	
C=CC(=O)N1CCN(c2nc(=O)n(-c3ccccc3C(C)C)c3nc(-c4ccccc4F)c(Cl)cc23)[C@@H](C)C1 (single isomer, unassigned) [Example 54-86-1]	≤ 5.00				pIC50 [1, 4]: 6.17
C=CC(=O)N1CCN(c2nc(=O)n(-c3ccccc3C(C)C)c3nc(Cl)c(Cl)cc23)CC1 [Example 54-80, 6,7-dichloro-1-(2-(2-propanyl)phenyl)-4-(4-(2-propenoyl)-1-piperazinyl) pyrido[2,3-d]pyrimidin-2(1H)-one]		5.25	≤ 4.00		
C=CC(=O)N1CCN(c2nc(=O)n(-c3ccccc3C(C)C)c3nc(-c4ccc(F)cc4F)c(Cl)cc23)[C@@H](C)C1 [Example 54-85, 6-chloro-7-(2,4-difluorophenyl)-4-((2S)-2-methyl-4-(2-propenoyl)-1-piperazinyl)-1-(2-(2-propanyl)phenyl)pyrido [2,3-d]pyrimidin-2(1H)-one]	≤ 4.00			6.80	
C=CC(=O)N1CCN(c2nc(=O)n(-c3ccccc3C(C)C)c3cc(Br)c(Cl)cc23)[C@@H](C)C1 (single isomer, unassigned) [Example 9-17-1]					pIC50 ([1]; read-out: p-ERK IC50 (4 h; MIA PaCa-2), 4 h compound treatment): 5.66; pIC50 ([2]; read-out: p-ERK IC50 (4 h; A549), 4 h compound treatment): 4.12
C=CC(=O)N1CCN(c2nc(=O)n(-c3ccccc3C(C)C)c3cc(-c4ccccc4F)c(Cl)cc23)[C@@H](C)C1 (single isomer, unassigned) [Example 62-1-1]	≤ 5.00				pIC50 [1, 4]: 6.37
C=CC(=O)N1CCN(c2nc(=O)n(-c3ccccc3C(C)C)c3cc(-c4ccccc4F)c(Cl)cc23)CC1 [Example 88, 6-Chloro-7-(2-fluorophenyl)-1-(2-(2-propanyl)phenyl)-4-(4-(2-propenoyl)-1-piperazinyl)-2(1H)-quinazolinone]		6.61	4.05	6.63	
C=CC(=O)N1CCN(c2nc(=O)n(-c3c(C(C)C)ccnc3C)c3nc(-c4ccccc4F)c(F)cc23)[C@@H](C)C1 [Example 58-16, 6-fluoro-7-(2-fluorophenyl)-1-(2-methyl-4-(2-propanyl)-3-pyridinyl)-4-((2S)-2-methyl-4-(2-propenoyl)-1-piperazinyl)pyrido[2,3-d]pyrimidin-2(1H)-one]				6.25	Coupled exchange IC50 (5 min) [3]: 0.553 | nda μM
C=CC(=O)N1CCN(c2nc(=O)n(-c3c(C)ccnc3C(C)C)c3nc(-c4ccccc4F)c(C)nc23)[C@@H](C)C1 (single isomer, unassigned) [Example 143-1]					Coupled exchange IC50 (5 min) [3]: 2.72 | nda μM; pIC50 [1, 4]: 5.45
C=CC(=O)N1CCN(c2nc(=O)n(-c3c(C)ncnc3C(C)C)c3nc(-c4ccccc4F)c(F)cc23)[C@@H](C)C1 [Example 58-12, 6-fluoro-7-(2-fluorophenyl)-1-(4-methyl-6-(2-propanyl)-5-pyrimidinyl)-4-((2S)-2-methyl-4-(2-propenoyl)-1-piperazinyl)pyrido[2,3-d]pyrimidin-2(1H)-one]				6.29	Coupled exchange IC50 (5 min) [3]: 0.953 | nda μM
C=CC(=O)N1CCN(c2nc(=O)n(-c3nccnc3C(C)C)c3nc(-c4c(O)cccc4F)c(Cl)cc23)[C@@H](C)C1 [Example 54-21, 6-chloro-7-(2-fluoro-6-hydroxyphenyl)-4-((2S)-2-methyl-4-(2-propenoyl)-1-piperazinyl)-1-(3-(2-propanyl)-2-pyrazinyl) pyrido[2,3-d]pyrimidin-2(1H)-one]				5.61	Coupled exchange IC50 (5 min) [3]: 1.67 | nda μM
C=CC(=O)N1CCN(c2nc(=O)n(-c3c(C(F)(F)F)ccnc3C(C)C)c3nc(-c4c(O)cccc4F)c(F)cc23)[C@@H](C)C1 (single isomer, unassigned) [Example 58-3-2]					Coupled exchange IC50 (5 min) [3]: 0.485 | nda μM; pIC50 [1, 4]: 6.06
